From ChEMBL document CHEMBL4052790, “Identification of a Novel TRPM8 Agonist from Nutmeg: A Promising Cooling Compound” (ACS Med Chem Lett, 2017) come the findings set out here.

Active and inactive are the calls of the source. The calls are words filed in the database; no cut-off is given here. A value given as a limit tells only on which side of the number the result lay.

Assay [1] has as its target T1, Transient receptor potential cation channel subfamily M member 8 (Homo sapiens, UniProt Q7Z2W7). In words: Agonist activity at full length recombinant human TRPM8 expressed in HEK293 cells assessed as increase in intracellular Ca2+ level pre-incubated for 5 mins by Fluo4-AM dye-based fluorescence assay. It counts as cell-based.
Target sequence in this assay (Q7Z2W7 whole entry): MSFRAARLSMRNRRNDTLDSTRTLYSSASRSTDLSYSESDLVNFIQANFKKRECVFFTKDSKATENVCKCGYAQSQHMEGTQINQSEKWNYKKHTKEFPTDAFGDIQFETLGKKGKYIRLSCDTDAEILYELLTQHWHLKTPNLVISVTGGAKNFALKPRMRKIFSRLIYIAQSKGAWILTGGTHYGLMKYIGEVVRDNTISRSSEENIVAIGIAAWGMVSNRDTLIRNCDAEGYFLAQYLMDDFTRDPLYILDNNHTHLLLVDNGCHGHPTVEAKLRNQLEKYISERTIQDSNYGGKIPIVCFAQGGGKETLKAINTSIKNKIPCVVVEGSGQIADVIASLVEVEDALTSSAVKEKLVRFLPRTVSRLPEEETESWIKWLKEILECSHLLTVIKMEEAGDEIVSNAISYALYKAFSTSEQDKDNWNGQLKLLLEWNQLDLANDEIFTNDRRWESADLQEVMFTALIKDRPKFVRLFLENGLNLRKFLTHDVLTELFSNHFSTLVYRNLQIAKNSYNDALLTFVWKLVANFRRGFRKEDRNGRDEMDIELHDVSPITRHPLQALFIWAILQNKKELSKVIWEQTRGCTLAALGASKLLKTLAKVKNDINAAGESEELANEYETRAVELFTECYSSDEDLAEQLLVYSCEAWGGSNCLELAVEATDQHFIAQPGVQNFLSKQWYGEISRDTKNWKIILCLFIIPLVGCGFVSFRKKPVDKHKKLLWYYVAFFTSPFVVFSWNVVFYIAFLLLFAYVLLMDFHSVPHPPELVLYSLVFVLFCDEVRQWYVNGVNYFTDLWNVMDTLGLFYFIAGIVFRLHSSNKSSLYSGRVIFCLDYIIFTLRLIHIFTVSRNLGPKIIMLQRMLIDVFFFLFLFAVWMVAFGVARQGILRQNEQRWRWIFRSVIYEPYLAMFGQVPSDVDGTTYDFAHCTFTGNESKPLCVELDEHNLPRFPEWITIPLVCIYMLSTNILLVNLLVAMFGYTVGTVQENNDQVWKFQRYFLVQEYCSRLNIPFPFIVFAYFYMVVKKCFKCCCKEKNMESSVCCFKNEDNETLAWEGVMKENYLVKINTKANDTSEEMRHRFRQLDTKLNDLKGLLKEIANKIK
The target in assay [2] is Transient receptor potential cation channel subfamily A member 1 (Homo sapiens, UniProt O75762). In words: Agonist activity at recombinant human TRPA1 expressed in HEK293 cells assessed as increase in intracellular Ca2+ level pre-incubated for 5 mins by Fluo4-AM dye-based fluorescence assay. Format: cell-based.
The species entered for assay [3] is Homo sapiens. In words: Induction of cooling effect in human at 0.02% measured immediately after washing by simple mouth washing method. Format: functional.
Assay [4] concerns the target Transient receptor potential cation channel subfamily V member 1 (Homo sapiens) (UniProt Q8NER1). Nature of the assay: Agonist activity at recombinant human TRPV1 expressed in HEK293 cells assessed as increase in intracellular Ca2+ level pre-incubated for 5 mins by Fluo4-AM dye-based fluorescence assay. It counts as cell-based.
Assay [5] concerns the target T2, Transient receptor potential cation channel subfamily V member 3 (Homo sapiens) (UniProt Q8NET8).
T2 sequence (whole entry): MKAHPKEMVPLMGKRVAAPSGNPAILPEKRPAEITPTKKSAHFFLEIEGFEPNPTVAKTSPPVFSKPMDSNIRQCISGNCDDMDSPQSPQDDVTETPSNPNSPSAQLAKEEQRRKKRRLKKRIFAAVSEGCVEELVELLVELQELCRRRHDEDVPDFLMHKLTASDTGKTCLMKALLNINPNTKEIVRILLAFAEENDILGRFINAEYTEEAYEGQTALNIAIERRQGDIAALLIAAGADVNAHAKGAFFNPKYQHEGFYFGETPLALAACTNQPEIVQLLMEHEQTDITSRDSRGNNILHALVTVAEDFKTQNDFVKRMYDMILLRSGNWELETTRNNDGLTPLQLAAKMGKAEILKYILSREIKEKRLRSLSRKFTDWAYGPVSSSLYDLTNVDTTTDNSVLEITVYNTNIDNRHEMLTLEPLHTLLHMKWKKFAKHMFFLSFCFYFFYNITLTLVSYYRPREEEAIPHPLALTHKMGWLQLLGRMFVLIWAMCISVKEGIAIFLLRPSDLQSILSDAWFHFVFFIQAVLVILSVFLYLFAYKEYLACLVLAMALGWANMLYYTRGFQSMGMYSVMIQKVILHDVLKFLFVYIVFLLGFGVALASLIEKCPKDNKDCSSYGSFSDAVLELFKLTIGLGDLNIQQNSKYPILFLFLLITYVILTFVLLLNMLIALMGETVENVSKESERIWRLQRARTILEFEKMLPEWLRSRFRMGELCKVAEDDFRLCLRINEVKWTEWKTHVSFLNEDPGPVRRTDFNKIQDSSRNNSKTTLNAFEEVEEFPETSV
In words: Agonist activity at recombinant human TRPV3 expressed in HEK293 cells assessed as increase in intracellular Ca2+ level pre-incubated for 5 mins by Fluo4-AM dye-based fluorescence assay. It counts as cell-based.

Assay [6] concerns the target Transient receptor potential cation channel subfamily V member 4 (Homo sapiens) (UniProt Q9HBA0). Nature of the assay: Agonist activity at recombinant human TRPV4 expressed in HEK293 cells assessed as increase in intracellular Ca2+ level pre-incubated for 5 mins by Fluo4-AM dye-based fluorescence assay. Format: cell-based.
In assay [7] the test system is Transient receptor potential cation channel subfamily M member 8 (Homo sapiens), Q7Z2W7 [Y745H]. In words: Agonist activity at full length recombinant human TRPM8 Y745H mutant expressed in HEK293 cells at 0.3 to 3 uM by Fluo4-AM dye-based fluorescence assay. Format: cell-based.
In assay [8] the target is T1, Transient receptor potential cation channel subfamily M member 8. Nature of the assay: Agonist activity at full length recombinant human TRPM8 expressed in HEK293 cells assessed as additive potentiation of 1 and 3 uM l-menthol-stimulated intracellular Ca2+ level at 0.03 uM by Fluo4-AM dye-based fluorescence assay. Format: cell-based.
Target sequence in this assay (Q7Z2W7 whole entry, looked up): as the sequence (Q7Z2W7 whole entry) above
Assay [9] is filed under the species Homo sapiens. In words: Induction of cooling effect in human at 0.02% measured after few mins after washing by simple mouth washing method. Format: functional.

Chain of Transient receptor potential cation channel subfamily A member 1 (O75762 whole entry): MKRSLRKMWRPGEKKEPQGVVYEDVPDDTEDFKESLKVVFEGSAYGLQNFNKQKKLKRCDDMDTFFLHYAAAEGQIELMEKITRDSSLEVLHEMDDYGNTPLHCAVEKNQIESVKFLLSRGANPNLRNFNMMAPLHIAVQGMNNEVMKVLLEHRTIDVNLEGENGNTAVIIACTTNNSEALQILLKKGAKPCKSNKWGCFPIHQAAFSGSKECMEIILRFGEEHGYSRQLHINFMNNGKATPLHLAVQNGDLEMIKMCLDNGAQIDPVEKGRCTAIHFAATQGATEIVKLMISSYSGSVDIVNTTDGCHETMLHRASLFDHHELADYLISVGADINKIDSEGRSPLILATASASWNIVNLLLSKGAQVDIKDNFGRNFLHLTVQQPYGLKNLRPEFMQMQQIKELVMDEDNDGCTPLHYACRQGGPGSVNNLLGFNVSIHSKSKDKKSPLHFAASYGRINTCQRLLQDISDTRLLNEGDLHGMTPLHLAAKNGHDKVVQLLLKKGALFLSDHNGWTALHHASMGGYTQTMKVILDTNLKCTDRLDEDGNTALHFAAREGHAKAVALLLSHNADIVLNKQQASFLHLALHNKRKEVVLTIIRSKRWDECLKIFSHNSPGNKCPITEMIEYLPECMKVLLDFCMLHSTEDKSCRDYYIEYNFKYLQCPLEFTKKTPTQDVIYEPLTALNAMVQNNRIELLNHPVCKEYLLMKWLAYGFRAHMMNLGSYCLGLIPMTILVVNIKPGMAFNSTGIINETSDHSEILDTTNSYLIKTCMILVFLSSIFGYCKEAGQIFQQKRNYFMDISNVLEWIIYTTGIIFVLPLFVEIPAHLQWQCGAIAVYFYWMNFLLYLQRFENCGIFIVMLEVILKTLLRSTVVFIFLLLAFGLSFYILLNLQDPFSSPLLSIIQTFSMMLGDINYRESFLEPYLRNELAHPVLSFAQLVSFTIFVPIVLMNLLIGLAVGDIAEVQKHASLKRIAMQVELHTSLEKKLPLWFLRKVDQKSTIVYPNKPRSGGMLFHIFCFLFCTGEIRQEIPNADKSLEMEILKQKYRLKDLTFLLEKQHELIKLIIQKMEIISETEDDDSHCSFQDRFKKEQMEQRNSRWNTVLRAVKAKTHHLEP
Chain of Transient receptor potential cation channel subfamily V member 1 (Homo sapiens) (Q8NER1 whole entry): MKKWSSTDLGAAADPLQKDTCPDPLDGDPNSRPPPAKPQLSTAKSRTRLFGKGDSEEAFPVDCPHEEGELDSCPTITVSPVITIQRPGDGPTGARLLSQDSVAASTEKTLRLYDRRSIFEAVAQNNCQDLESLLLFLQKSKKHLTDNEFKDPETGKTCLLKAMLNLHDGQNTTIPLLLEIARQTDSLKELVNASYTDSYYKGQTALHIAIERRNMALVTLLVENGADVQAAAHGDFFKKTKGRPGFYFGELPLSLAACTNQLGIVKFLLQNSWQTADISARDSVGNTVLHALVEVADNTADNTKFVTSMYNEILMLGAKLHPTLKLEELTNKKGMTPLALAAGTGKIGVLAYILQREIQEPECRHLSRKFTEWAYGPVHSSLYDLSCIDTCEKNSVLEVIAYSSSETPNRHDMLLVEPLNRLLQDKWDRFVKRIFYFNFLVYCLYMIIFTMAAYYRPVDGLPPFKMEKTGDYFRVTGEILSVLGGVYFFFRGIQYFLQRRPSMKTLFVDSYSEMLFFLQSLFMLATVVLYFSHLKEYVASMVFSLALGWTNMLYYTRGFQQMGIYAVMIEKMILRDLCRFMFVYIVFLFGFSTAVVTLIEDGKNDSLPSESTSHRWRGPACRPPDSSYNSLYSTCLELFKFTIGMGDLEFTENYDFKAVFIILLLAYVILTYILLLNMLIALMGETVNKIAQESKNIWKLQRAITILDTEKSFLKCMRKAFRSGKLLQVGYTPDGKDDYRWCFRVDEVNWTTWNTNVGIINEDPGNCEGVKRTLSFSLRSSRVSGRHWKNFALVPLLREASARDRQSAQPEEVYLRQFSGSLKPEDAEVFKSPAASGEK
Chain of Transient receptor potential cation channel subfamily V member 4 (Homo sapiens) (Q9HBA0 whole entry): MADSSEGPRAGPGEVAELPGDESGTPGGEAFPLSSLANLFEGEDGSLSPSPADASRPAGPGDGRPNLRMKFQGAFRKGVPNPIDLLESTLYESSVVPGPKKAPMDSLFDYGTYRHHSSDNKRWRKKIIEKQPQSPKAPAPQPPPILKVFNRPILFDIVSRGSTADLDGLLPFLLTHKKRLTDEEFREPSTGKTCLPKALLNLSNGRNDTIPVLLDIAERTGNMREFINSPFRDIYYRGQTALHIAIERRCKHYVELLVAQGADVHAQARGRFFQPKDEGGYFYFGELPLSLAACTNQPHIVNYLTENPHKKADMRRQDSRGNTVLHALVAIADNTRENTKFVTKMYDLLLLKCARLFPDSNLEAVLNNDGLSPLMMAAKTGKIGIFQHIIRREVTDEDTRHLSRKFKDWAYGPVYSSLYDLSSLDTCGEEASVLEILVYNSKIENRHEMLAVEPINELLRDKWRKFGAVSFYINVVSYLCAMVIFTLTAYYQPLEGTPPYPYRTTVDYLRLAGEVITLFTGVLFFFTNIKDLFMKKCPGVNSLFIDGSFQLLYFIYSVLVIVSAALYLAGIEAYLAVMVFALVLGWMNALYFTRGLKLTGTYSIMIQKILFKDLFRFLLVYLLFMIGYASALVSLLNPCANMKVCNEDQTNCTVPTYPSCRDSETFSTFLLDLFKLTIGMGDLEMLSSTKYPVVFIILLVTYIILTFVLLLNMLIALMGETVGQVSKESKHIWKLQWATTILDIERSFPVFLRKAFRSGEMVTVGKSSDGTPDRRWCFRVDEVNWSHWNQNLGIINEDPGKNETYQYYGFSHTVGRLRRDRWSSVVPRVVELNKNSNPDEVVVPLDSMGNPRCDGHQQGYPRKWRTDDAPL
Chain of Transient receptor potential cation channel subfamily M member 8 (Homo sapiens), Q7Z2W7 [Y745H] (Q7Z2W7 whole entry Y745H): as the sequence (Q7Z2W7 whole entry) above, with Y745H counted along it

The EC50 is the midpoint of the concentration-response curve. For `C=CCc1cc(OC)c(OC(C)C(OC(C)C)c2ccc(O)c(OC)c2)c(OC)c1` (configuration not stated), in [1], the EC50 was 82 nM. Same read-out and setting: to `C=CCc1cc(OC)c(OC(C)C(O)c2ccc(O)c(OC)c2)c(OC)c1` (racemic) belongs more than 10000 nM. Same read-out and setting: to `C=CCc1cc(OC)c(OC(C)C(OCCCCCCCC)c2ccc(O)c(OC)c2)c(OC)c1` (configuration not stated) belongs 86 nM; to `C=CCc1cc(OC)c(OC(C)C(OCCOCCCC)c2ccc(O)c(OC)c2)c(OC)c1` (configuration not stated), 153 nM.

Consider `C=CCc1cc(OC)c(O[C@H](C)[C@@H](OCC)c2ccc(O)c(OC)c2)c(OC)c1`, for which the EC50 in [1] was 1150 nM. Regarding `CC(C)[C@@H]1CC[C@@H](C)C[C@H]1O` [LEVOMENTHOL], the concentration giving a half-maximal response (EC50) in [2] is 96000 nM. In addition, the result in the assay listed under Homo sapiens [3] was Active. For the compound `C=CCc1cc(OC)c(OC(C)C(OCCCCCC)c2ccc(O)c(OC)c2)c(OC)c1` (configuration not stated), the EC50 in assay [1] stood at 329 nM. For `C=CCc1cc(OC)c(OC(C)C(OC2CCCCC2)c2ccc(O)c(OC)c2)c(OC)c1` (configuration not stated), the concentration for a half-maximal effect (EC50) in assay [1] amounted to 54 nM. The same measure, in the same setting: to `C=CCc1cc(OC)c(OC(C)C(OCCCCCCCCCC)c2ccc(O)c(OC)c2)c(OC)c1` (configuration not stated) belongs 66 nM; to `C=CCc1cc(OC)c(O[C@H](C)[C@@H](O)c2ccc(OC)c(OC)c2)c(OC)c1`, more than 10000 nM.

In the case of `C=CCc1cc(OC)c(OC(C)C(OCC(C)C)c2ccc(O)c(OC)c2)c(OC)c1` (configuration not stated), in assay [1], the EC50 came to 138 nM. The same measure, in the same setting: to `C=CCc1cc(OC)c(OC(C)C(OC)c2ccc(O)c(OC)c2)c(OC)c1` (configuration not stated) belongs 3450 nM; to `C=CCc1cc(OC)c(OC(C)C(O[C@H]2C[C@@H](C)CC[C@@H]2C(C)C)c2ccc(O)c(OC)c2)c(OC)c1` (some centres not stated), 11 nM. For `C=CCc1cc(OC)c(O[C@H](C)[C@@H](OC(C)=O)c2ccc(OC)c(OC)c2)c(OC)c1`, the EC50 in assay [1] is more than 10000 nM. The same measure, in the same setting: in the case of `C=CCc1cc(OC)c(OC(C)C(O[C@@H]2C[C@H](C)CC[C@H]2C(C)C)c2ccc(O)c(OC)c2)c(OC)c1` (some centres not stated) it was 28 nM; in that of `C=CCc1cc(OC)c(O[C@@H](C)[C@H](OCC)c2ccc(O)c(OC)c2)c(OC)c1`, 1130 nM; in that of `C=CCc1cc(OC)c(O[C@H](C)[C@@H](OC(C)=O)c2ccc(O)c(OC)c2)c(OC)c1`, more than 10000 nM. The same measure, in the same setting: in the case of `C=CCc1cc(OC)c(O[C@H](C)[C@H](OCC)c2ccc(O)c(OC)c2)c(OC)c1` it was 583 nM.

`C=CCc1cc(OC)c(OC(C)C(OCC)c2ccc(O)c(OC)c2)c(OC)c1` (mixture of isomers): the results for the EC50 in assay [1] and in [2] were 332 nM and 19100 nM, respectively. In addition, the result in assay [4], in assay [5] and in [6] was inactive. Besides, the outcome (in assay [7]; in assay [8]; in the assay filed under Homo sapiens [9]) was Active.
